Measurements: US20210053957A1, “HERBICIDAL COMPOUNDS” (SYNGENTA PARTICIPATIONS AG, priority 2018, published 2021)
Structures can show the parent of a compound that is named as a salt.

Assays:
Test in all cases: Post-emergence efficacy, glasshouse spray test
Type in all cases: in vivo
[1] = test system: Ipomoea hederacea (IPOHE); conditions: Ipomoea hederacea, post-emergence, 312 h, evaluated after 13 days, read-out: Control of weed species after post-emergence application, IPOHE (100=total damage to plant; 0=no damage to plant); for pest or weed control at 500 g/ha: Application Rate 500 g/Ha; for pest or weed control at 125 g/ha: Application Rate 125 g/Ha
Description: (§1) Seeds of a variety of test species were sown in standard soil in pots. After cultivation for 14 days (post-emergence) under controlled conditions in a glasshouse (at 24/16° C. day/night; 14 hours light; 65% humidity), the plants were sprayed with an aqueous spray solution derived from the dissolution of the technical active ingredient formula (I) in a small amount of acetone and a special solvent and emulsifier mixture referred to as IF50 (11.12% Emulsogen EL360 TM+44.44% N-methyl pyrrolidone+44.44% Dowanol DPM glycolether), to create a 50 g/l solution which was then diluted to required concentration using 0.25% or 1% Empicol ESC70 (Sodium lauryl ether sulphate)+1% ammonium sulphate as diluent. The test plants were then grown in a glasshouse under controlled conditions (at 24/16° C., day/night; 14 hours light; 65% humidity) and watered twice daily. After 13 days the test was evaluated (100=total damage to plant; 0=no damage to plant).
(§2) Ipomoea hederacea (IPOHE), Euphorbia heterophylla (EPHHL), Chenopodium album (CHEAL), Amaranthus palmeri (AMAPA), Lolium perenne (LOLPE), Digitaria sanguinalis (DIGSA), Eleusine indica (ELEIN), Echinochloa crus-galli (ECHCG), Setaia fabei (SETFA)

Eleusine indica (ELEIN) = conditions: Eleusine indica, post-emergence, 312 h, evaluated after 13 days, read-out: Control of weed species after post-emergence application, ELEIN (100=total damage to plant; 0=no damage to plant); for pest or weed control at 500 g/ha: Application Rate 500 g/Ha; for pest or weed control at 125 g/ha: Application Rate 125 g/Ha
Description: as §1, §2

Setaia fabei (SETFA) = conditions: Setaria faberi, post-emergence, 312 h, evaluated after 13 days, read-out: Control of weed species after post-emergence application, SETFA (100=total damage to plant; 0=no damage to plant); for pest or weed control at 500 g/ha: Application Rate 500 g/Ha; for pest or weed control at 125 g/ha: Application Rate 125 g/Ha
Description: as §1, §2

[2] = test system: Digitaria sanguinalis (DIGSA); conditions: Digitaria sanguinalis, post-emergence, 312 h, evaluated after 13 days, read-out: Control of weed species after post-emergence application, DIGSA (100=total damage to plant; 0=no damage to plant); for pest or weed control at 500 g/ha: Application Rate 500 g/Ha; for pest or weed control at 125 g/ha: Application Rate 125 g/Ha
Description: as §1, §2

[3] = test system: Amaranthus palmeri (AMAPA); conditions: Amaranthus palmeri, post-emergence, 312 h, evaluated after 13 days, read-out: Control of weed species after post-emergence application, AMAPA (100=total damage to plant; 0=no damage to plant); for pest or weed control at 500 g/ha: Application Rate 500 g/Ha; for pest or weed control at 125 g/ha: Application Rate 125 g/Ha
Description: as §1, §2

[4] = test system: Chenopodium album (CHEAL); conditions: Chenopodium album, post-emergence, 312 h, evaluated after 13 days, read-out: Control of weed species after post-emergence application, CHEAL (100=total damage to plant; 0=no damage to plant); for pest or weed control at 500 g/ha: Application Rate 500 g/Ha; for pest or weed control at 125 g/ha: Application Rate 125 g/Ha
Description: as §1, §2

[5] = test system: Euphorbia heterophylla (EPHHL); conditions: Euphorbia heterophylla, post-emergence, 312 h, evaluated after 13 days, read-out: Control of weed species after post-emergence application, EPHHL (100=total damage to plant; 0=no damage to plant); for pest or weed control at 500 g/ha: Application Rate 500 g/Ha; for pest or weed control at 125 g/ha: Application Rate 125 g/Ha
Description: as §1, §2

[6] = test system: Echinochloa crus-galli (ECHCG); conditions: Echinochloa crus-galli, post-emergence, 312 h, evaluated after 13 days, read-out: Control of weed species after post-emergence application, ECHCG (100=total damage to plant; 0=no damage to plant); for pest or weed control at 500 g/ha: Application Rate 500 g/Ha; for pest or weed control at 125 g/ha: Application Rate 125 g/Ha
Description: as §1, §2

Lolium perenne (LOLPE) = conditions: Lolium perenne, post-emergence, 312 h, evaluated after 13 days, read-out: Control of weed species after post-emergence application, LOLPE (100=total damage to plant; 0=no damage to plant); for pest or weed control at 500 g/ha: Application Rate 500 g/Ha; for pest or weed control at 125 g/ha: Application Rate 125 g/Ha
Description: as §1, §2

Structure (SMILES)	pest or weed control at 500 g/ha [1]	pest or weed control at 500 g/ha (Eleusine indica (ELEIN))	pest or weed control at 500 g/ha (Setaia fabei (SETFA))	pest or weed control at 500 g/ha [2]	pest or weed control at 500 g/ha [3]	pest or weed control at 500 g/ha [4]	pest or weed control at 500 g/ha [5]	pest or weed control at 500 g/ha [6]	pest or weed control at 500 g/ha (Lolium perenne (LOLPE))	pest or weed control at 125 g/ha [1]	pest or weed control at 125 g/ha (Eleusine indica (ELEIN))	pest or weed control at 125 g/ha (Setaia fabei (SETFA))	pest or weed control at 125 g/ha [2]	pest or weed control at 125 g/ha [3]	pest or weed control at 125 g/ha [4]	pest or weed control at 125 g/ha [5]	pest or weed control at 125 g/ha [6]	pest or weed control at 125 g/ha (Lolium perenne (LOLPE))
O=S(=O)([O-])CC[n+]1ccc(-c2nccs2)cn1 [Compound A1, 2-(4-thiazol-2-ylpyridazin-1-ium-1-yl)ethanesulfonate]	50%	50%	50%	100%	100%	70%	70%	60%	90%									
Cn1ccc(-c2cc[n+](CCS(=O)(=O)[O-])nc2)n1 [Compound A2]										10%	10%	20%	20%	0%	0%	30%	10%	0%
O=S(=O)([O-])CCC[n+]1ccc(-c2ncco2)cn1 [Compound A3, 3-(4-oxazol-2-ylpyridazin-1-ium-1-yl)propane-1-sulfonate]										40%	50%	80%	80%	20%	60%	70%	70%	20%
Cn1nccc1-c1cc[n+](CCCS(=O)(=O)[O-])nc1 [Compound A4]	10%	10%	20%	30%	10%	30%	40%	20%	0%									
O=S(=O)([O-])CC[n+]1ccc(-c2ccns2)cn1 [Compound A5]	70%	80%	60%	60%	100%	100%	100%	70%	100%									
Cn1ncc(-c2cc[n+](CCS(=O)(=O)[O-])nc2)n1 [Compound A6]	10%	60%	70%	60%	90%	40%	20%	60%	60%									
O=S(=O)([O-])CCC[n+]1ccc(-c2nnco2)cn1 [Compound A7]	10%	20%	10%	30%	0%	0%	20%	10%	10%									
O=S(=O)([O-])OCC[n+]1ccc(-c2ncno2)cn1 [Compound A8, 2-[4-(1,2,4-oxadiazol-5-yl)pyridazin-1-ium-1-yl]ethyl sulfate]	30%	20%	40%	50%	10%	10%	30%	50%	10%									
O=S(=O)([O-])CC[n+]1ccc(-c2ncns2)cn1 [Compound A9]	80%	80%	60%	70%	90%	70%	90%	60%	30%									
O=S(=O)([O-])CC[n+]1ccc(-c2ccno2)cn1 [Compound A79]	80%	100%	90%	90%	100%	90%		80%	70%									
Cn1cc(-c2cc[n+](CCC(=O)O)nc2)nn1 [Compound A80]	10%	10%	40%	60%	40%	10%		0%	0%									
Cn1cc(-c2cc[n+](CCS(=O)(=O)[O-])nc2)nn1 [Compound A81]	10%	10%	50%	70%	50%	40%		30%	10%									
O=C(O)c1ccccc1C[n+]1ccc(-c2ncco2)cn1 [Compound A91]	20%	40%	20%	40%	40%	60%		20%	10%									
COC(=O)[C@@H](N)CC[n+]1ccc(-c2ncco2)cn1 [Compound A109]	0%		90%		90%	90%	60%		10%									
COC(=O)CCC[n+]1ccc(-c2nccs2)cn1 [Compound A114]	10%	90%	50%	70%	100%	60%		40%	30%									
